Measurements taken from EP0938471B1, “THE PREPARATION AND USE OF ORTHO-SULFONAMIDO ARYL HYDROXAMIC ACIDS AS MATRIX METALLOPROTEINASE AND TACE INHIBITORS” (priority 1996, dated 1998).
Structures can show the parent of a compound that is named as a salt. Where two headings read alike, the source gives them in different places.

Columns and labels:
Format in all cases: biochemical
MMP-9 = MMP-9 (Homo sapiens, UniProt P14780); test: MMP-9 inhibition (thiopeptide or fluorescent peptide substrate assay)
MMP-9, sequence (P14780 94-707): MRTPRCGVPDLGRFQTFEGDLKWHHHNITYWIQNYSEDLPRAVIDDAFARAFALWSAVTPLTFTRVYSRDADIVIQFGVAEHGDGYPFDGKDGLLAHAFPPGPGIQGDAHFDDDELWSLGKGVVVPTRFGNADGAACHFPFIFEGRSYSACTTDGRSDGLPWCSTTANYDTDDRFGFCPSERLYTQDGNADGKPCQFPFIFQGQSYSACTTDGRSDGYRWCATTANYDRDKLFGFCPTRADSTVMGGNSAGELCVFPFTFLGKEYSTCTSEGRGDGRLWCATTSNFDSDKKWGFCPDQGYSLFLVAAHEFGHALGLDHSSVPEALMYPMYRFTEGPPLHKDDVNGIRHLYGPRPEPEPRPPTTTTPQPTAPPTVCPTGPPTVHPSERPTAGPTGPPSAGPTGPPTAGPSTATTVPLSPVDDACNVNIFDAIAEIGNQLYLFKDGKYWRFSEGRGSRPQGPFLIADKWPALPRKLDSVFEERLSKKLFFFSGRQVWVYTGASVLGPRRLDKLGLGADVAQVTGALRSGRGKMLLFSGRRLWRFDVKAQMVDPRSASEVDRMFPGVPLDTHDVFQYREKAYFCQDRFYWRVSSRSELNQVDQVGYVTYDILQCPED

MMP-1 = molecular target: T1, MMP-1 (Homo sapiens, UniProt P03956); test: MMP-1 inhibition (thiopeptide or fluorescent peptide substrate assay); conditions: for IC50: read-out: MMP-1 IC50
T1 sequence (P03956 100-469): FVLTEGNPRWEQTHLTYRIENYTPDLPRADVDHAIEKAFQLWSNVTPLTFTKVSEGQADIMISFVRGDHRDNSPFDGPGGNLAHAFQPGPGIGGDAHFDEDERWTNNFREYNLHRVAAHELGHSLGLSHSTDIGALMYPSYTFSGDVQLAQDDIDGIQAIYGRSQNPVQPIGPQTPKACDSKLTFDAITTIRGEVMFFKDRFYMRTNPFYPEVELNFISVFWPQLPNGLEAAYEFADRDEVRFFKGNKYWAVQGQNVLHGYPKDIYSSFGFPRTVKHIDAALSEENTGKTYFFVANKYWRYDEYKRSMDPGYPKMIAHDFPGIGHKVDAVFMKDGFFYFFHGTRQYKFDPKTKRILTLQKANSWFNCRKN

TACE = TACE (Homo sapiens, UniProt P78536); test: TACE inhibition (fluorescent peptidyl substrate); conditions: for inhibition at 1 µM: at 1µM concentration
TACE, sequence (P78536 215-824): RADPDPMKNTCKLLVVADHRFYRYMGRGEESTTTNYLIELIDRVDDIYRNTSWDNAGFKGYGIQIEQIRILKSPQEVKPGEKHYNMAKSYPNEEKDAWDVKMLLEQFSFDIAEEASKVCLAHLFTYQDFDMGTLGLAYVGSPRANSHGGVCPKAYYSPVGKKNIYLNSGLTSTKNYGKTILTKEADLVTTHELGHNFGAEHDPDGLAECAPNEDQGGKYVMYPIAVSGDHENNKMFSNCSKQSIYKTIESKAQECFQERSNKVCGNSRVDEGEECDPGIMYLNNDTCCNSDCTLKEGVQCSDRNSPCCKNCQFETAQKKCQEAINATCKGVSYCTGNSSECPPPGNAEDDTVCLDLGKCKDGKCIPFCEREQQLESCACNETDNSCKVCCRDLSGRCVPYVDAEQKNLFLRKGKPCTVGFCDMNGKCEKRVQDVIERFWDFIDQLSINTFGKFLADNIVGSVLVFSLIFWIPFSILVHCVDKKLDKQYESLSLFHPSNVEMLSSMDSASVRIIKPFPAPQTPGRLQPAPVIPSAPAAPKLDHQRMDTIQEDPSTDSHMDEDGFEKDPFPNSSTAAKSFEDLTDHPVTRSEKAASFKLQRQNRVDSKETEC

MMP-13 = MMP-13 (Homo sapiens, UniProt P45452); test: MMP-13 inhibition (thiopeptide or fluorescent peptide substrate assay)

IC50 (MMP-9; read-out: MMP-9 IC50)	IC50 (MMP-1)	IC50 (MMP-13; read-out: MMP-13 IC50)	Compound	IC50 (TACE; read-out: TACE IC50)	other results
346 nM	884 nM	982 nM	COc1ccc(S(=O)(=O)N(Cc2ccccc2)c2cc(C)ccc2C(=O)NO)cc1 [Example 26, 2-[Benzyl-(4-methoxy-benzenesulfonyl)-amino]-N-hydroxy-4-methyl-benzamide]	> 1000 nM	–
440 nM	1570 nM	717 nM	COc1ccc(S(=O)(=O)N(Cc2ccccc2)c2cccc(C)c2C(=O)NO)cc1 [Example 27, 2-[Benzyl-(4-methoxy-benzenesulfonyl)-amino]-N-hydroxy-6-methyl-benzamide]	> 1000 nM	–
–	–	–	COc1ccc(S(=O)(=O)N(Cc2ccccc2)c2c(C)cccc2C(=O)NO)cc1 [Example 28, 2-[Benzyl-(4-methoxy-benzenesulfonyl)-amino]-N-hydroxy-3-methyl-benzamide]	460 nM	IC50 (MMP-13): 50 nM
3 nM	24 nM	–	COc1ccc(S(=O)(=O)N(Cc2ccccc2)c2c(OCC(=O)NO)cccc2C(=O)NO)cc1 [Example 54, 2-[Benzyl-(4-methoxy-benzenesulfonyl)-amino]-N-hydroxy-3-hydroxycarbamoylmethoxy-benzamide]	–	IC50 (MMP-13): 4 nM
131 nM	–	–	CCCCC#Cc1cc(C)c(N(Cc2ccccc2)S(=O)(=O)c2ccc(OC)cc2)c(C(=O)NO)c1 [Example 77, 2-[Benzyl-(4-methoxy-benzenesulfonyl)-amino]-5-hex-1-ynyl-N-hydroxy-3-methyl-benzamide]	–	–
663 nM	–	–	COc1ccc(S(=O)(=O)N(Cc2cccnc2)c2ccccc2C(=O)NO)cc1 [Example 85, N-Hydroxy-2-[(4-methoxy-benzenesulfonyl)-pyridin-3-ylmethyl-amino]-benzamide]	> 1000 nM	–
29 nM	314 nM	–	COc1ccc(S(=O)(=O)N(Cc2ccccc2)c2c(C(=O)NO)ccc(Cl)c2C)cc1 [Example 102, 2-[Benzyl-(4-methoxy-benzenesulfonyl)-amino]-4-chloro-N-hydroxy-3-methyl-benzamide]	162 nM	–
104 nM	> 1000 nM	134 nM	COc1ccc(S(=O)(=O)N(Cc2ccccc2)c2c(C(=O)NO)cc(OC)c(OC)c2OC)cc1 [Example 156, 2-[Benzyl-(4-methoxy-benzenesulfonyl)-amino]-N-hydroxy-3,4,5-trimethoxy-benzamide]	–	–
11 nM	> 1000 nM	62 nM	COc1ccc(S(=O)(=O)N(Cc2cccnc2)c2c(C(=O)NO)cc(OC)c(OC)c2OC)cc1 [Example 158, N-Hydroxy-3,4,5-trimethoxy-2-[(4-methoxy-benzenesulfonyl)-pyridin-3-ylmethyl-amino]-benzamide]	–	–
286 nM	–	350 nM	COc1ccc(S(=O)(=O)N2CCCOc3cccc(C(=O)NO)c32)cc1 [Example 165, 5-(4-Methoxy-benzenesulfonyl)-2,3,4,5-tetrahydro-1,5-benzoxazepine-6-carboxylic acid hydroxyamide]	–	–
203 nM	–	> 300 nM	COc1ccc(S(=O)(=O)N2Cc3ccccc3COc3cccc(C(=O)NO)c32)cc1 [Example 166, 12-(4-Methoxy-benzenesulfonyl)-11,12-dihydro-6H-dibenz[b,f][1,4]oxazocine-1-carboxylic acid hydroxyamide]	–	–
42 nM	–	178 nM	COc1ccc(S(=O)(=O)N2CCCCOc3cccc(C(=O)NO)c32)cc1 [Example 167, 6-(4-Methoxy-benzenesulfonyl)-3,4,5,6-tetrahydro-2H-1,6-benzoxazocine-7-carboxylic acid hydroxyamide]	–	–
–	291 nM	24 nM	CCOc1ccc(S(=O)(=O)N(Cc2ccccc2)c2c(C)cc(C)cc2C(=O)NO)cc1 [Example 302, 2-[Benzyl-(4-ethoxy-benzenesulfonyl)-amino]-N-hydroxy-3,5-dimethyl-benzamide]	173 nM	–
64 nM	2780 nM	104 nM	CCCOc1ccc(S(=O)(=O)N(Cc2ccccc2)c2c(C)cc(C)cc2C(=O)NO)cc1 [Example 303, 2-[Benzyl-(4-propoxy-benzenesulfonyl)-amino]-N-hydroxy-3,5-dimethyl-benzamide]	–	–
–	4100 nM	305 nM	Cc1cc(C)c(N(Cc2ccccc2)S(=O)(=O)c2ccc(OC(C)C)cc2)c(C(=O)NO)c1 [Example 304, 2-[Benzyl-(4-isopropoxy-benzenesulfonyl)-amino]-N-hydroxy-3,5-dimethyl-benzamide]	–	inhibition at 1 µM (TACE): 25%
6.4 nM	207 nM	–	COC(=O)c1cccc(C(=O)NO)c1N(Cc1cccnc1)S(=O)(=O)c1ccc(OC)cc1 [Example 369, N-Hydroxy-2-[(4-methoxy-benzenesulfonyl)-pyridin-3-ylmethyl-amino]-isophthalamic acid methyl ester]	–	IC50 (TACE): 38 nM
6.5 nM	–	–	COc1ccc(S(=O)(=O)N(Cc2ccc(N3CCN(C)CC3)cc2)c2c(C)cccc2C(=O)NO)cc1 [Example 382, N-Hydroxy-2-{(4-methoxy-benzenesulfonyl)-[4-(4-methyl-piperazin-1-yl)-benzyl]-amino}-3-methyl-benzamide]	–	IC50 (MMP-13): 20 nM; IC50 (TACE): 146 nM
–	–	–	COc1ccc(S(=O)(=O)N(Cc2ccccc2)c2c(C(=O)NO)cccc2N(C)C)cc1 [Example 390, 2-[Benzyl-(4-methoxy-benzenesulfonyl)-amino]-3-dimethylamino-N-hydroxy-benzamide]	–	IC50 (MMP-13): 531 nM; inhibition at 1 µM (TACE): 39%; inhibition at 1 µM (MMP-1; read-out: MMP-1 % inhibition, footnote: 1µM): 19%
–	–	–	COc1ccc(S(=O)(=O)N(Cc2cccnc2)c2c(C)cc(-c3ccccc3)cc2C(=O)NO)cc1 [Example 397, 4-[(4-Methoxy-benzenesulfonyl)-pyridin-3-ylmethyl-amino]-5-methyl-biphenyl-3-carboxylic acid hydroxyamide hydrochloride salt]	–	IC50 (TACE): 64 nM; IC50 (MMP-9): 3 nM
199 nM	1690 nM	35 nM	Cc1cccc(C(=O)NO)c1N(Cc1ccc(Cl)cc1)S(=O)(=O)c1ccc(-c2ccccn2)s1 [Example 407, 2-[(4-Chloro-benzyl)-(5-pyridin-2-yl-thiophene-2-sulfonyl)-amino]-N-hydroxy-3-methyl-benzamide]	–	–
731 nM	3450 nM	148 nM	Cc1ccc(CN(c2c(C)cccc2C(=O)NO)S(=O)(=O)c2ccc(-c3ccccn3)s2)cc1C [Example 408, 2-[(3,4-Dimethyl-benzyl)-(5-pyridin-2-yl-thiophene-2-sulfonyl)-amino]-N-hydroxy-3-methyl-benzamide]	–	–

Compound	IC50 (MMP-9; read-out: MMP-9 IC50)	IC50 (MMP-1)	IC50 (MMP-13; read-out: MMP-13 IC50)	IC50 (TACE; read-out: TACE IC50)	other results
3-Methyl-2-[4-(pyridin-4-yloxy)-benzensulfonylamino]-N-hydroxy-benzamide [Example 417]	6.8 nM	3240 nM	–	–	–
COc1ccc(S(=O)(=O)N(Cc2ccccc2)c2ccccc2C(=O)NO)cc1 [Example 23, 2-[Benzyl-(4-methoxy-benzenesulfonyl)-amino]-N-hydroxy-benzamide]	–	639 nM	–	> 1000 nM	IC50 (MMP-9): 650 nM
COc1ccc(S(=O)(=O)N(Cc2ccccc2)c2c(Cl)cccc2C(=O)NO)cc1 [Example 24, 2-[Benzyl-(4-methoxy-benzenesulfonyl)-amino]-3-chloro-N-hydroxy-benzamide]	31 nM	398 nM	–	–	–
COc1ccc(S(=O)(=O)N(Cc2ccccc2)c2c(OC)cccc2C(=O)NO)cc1 [Example 101, 2-[Benzyl-(4-methoxy-benzenesulfonyl)-amino]-N-hydroxy-3-methoxy-benzamide]	–	267 nM	–	422 nM	IC50 (MMP-9): 23 nM
COc1ccc(S(=O)(=O)N(Cc2ccccc2)c2c(C(=O)NO)cccc2C(F)(F)F)cc1 [Example 125, 2-[Benzyl-(4-methoxy-benzenesulfonyl)-amino]-N-hydroxy-3-trifluoromethyl-benzamide]	–	> 1000 nM	–	300 nM	IC50 (MMP-13): 134 nM
COc1ccc(S(=O)(=O)N(C)c2c(CN3CCN(C)CC3)cccc2C(=O)NO)cc1 [Example 194, N-Hydroxy-2-[(4-methoxybenzenesulfonyl)-methylamino]-3-(4-methylpiperazin-1-ylmethyl)-benzamide]	–	306 nM	12 nM	154 nM	–
CCN(CC)Cc1cc(C)c(N(Cc2ccccc2)S(=O)(=O)c2ccc(OC)cc2)c(C(=O)NO)c1 [Example 282, 2-[Benzyl-(4-methoxy-benzenesulfonyl)-amino]-5-diethylaminomethyl-N-hydroxy-3-methyl-benzamide]	–	1050 nM	113 nM	–	inhibition at 1 µM (TACE): 44%
COc1ccc(S(=O)(=O)N(Cc2cccnc2)c2c(C)cc(-c3ccsc3)cc2C(=O)NO)cc1 [Example 398, N-Hydroxy-2-[(4-methoxy-benzenesulfonyl)-pyridin-3-ylmethyl-amino]-3-methyl-5-thiophen-3-yl-benzamide hydrochloride salt]	2 nM	85 nM	–	56 nM	–
COc1ccc(S(=O)(=O)N(Cc2cccnc2)c2c(C)cc(-c3cccc(C(F)(F)F)c3)cc2C(=O)NO)cc1 [Example 406, 4-[(4-Methoxy-benzenesulfonyl)-pyridin-3-ylmethyl-amino]-5-methyl-3'-trifluoromethyl-biphenyl-3-carboxylic acid hydroxyamide hydrochloride salt]	1.1 nM	–	–	–	–
